Experimental data from patent publication US20260132172A1, “IN VITRO BIOSYNTHESIS OF DIVERSE PYRIDINE-BASED MACROCYCLIC PEPTIDES” (The Brd. of Trustees of the Univ. of Illinois, priority 2022, published 2026).
Where a SMILES comes first, the peptide text is derived from it. The star is where a group is joined. 5FAM = O=C1OC2(c3ccc(O)cc3Oc3cc(O)ccc32)c2ccc(C(=O)*)cc21

Key:
[1] = target: MBP-MroB; assay: Fluorescence polarization to measure KD with MroB; type: binding, Micromonospora rosaria
Procedure: (§1) All proteins and peptides were prepared in the 0.5× storage buffer before concentration/FP measurement. Experiments were done in triplicates. Stock fluorescein-labeled peptide was measured concentration using A490 (ε: 70,000 M^−1 cm^−1). Initial sample was prepared: 5 nM labelled Δ12MroA1 (for MroD; for MroB, only 2 nM labelled Δ12MroA1 was used), 10 μM MBP-MroB (A280 ε: 178,885 M^−1 cm^−1) or 10 μM MBP-MroD (A280 ε:115,740 M^−1 cm^−1). In a black 96-well plate (Corning 3686), 50 μL of initial sample was added to the first well, followed by 11 3-fold dilutions into subsequent wells containing 5 nM labeled Δ12MroA1. The plate was covered from light and incubated at room temperature for 1 h, and then fluorescence polarization was measured (Biotek Synergy H4 hybrid reader) using the following filter (Excitation: Emission—485 nm/20 nm: 518 nm/20 nm). The obtained data was converted to anisotropy value and plotted against protein concentration. Using the OriginPro software, the data were fitted to receptor depletion equation:^11
(§2) Where: y=anisotropy value, A1=minimum anisotropy, A2=maximum anisotropy, Lt=probe concentration, and x=total enzyme concentration.

[2] = target: MBP-MroD; assay: Fluorescence polarization to measure KD with MroD; type: binding, Micromonospora rosaria
Procedure: as §1, §2

[3] = tested on: MroBCD; assay: MroBCD treatment of precursor peptides, overall pyritide biosynthesis; type: biochemical, Micromonospora rosaria; settings: result in words
Procedure: (§3) In a 0.65 mL protein low-binding Eppendorf tube placed on ice. 0.75 μL of purified mroA variant template DNA was mixed with 0.75 μL of Solution B and 1 μL of Solution A of PURExpress In vitro Protein Synthesis Kit (E6800L) purchased from NEB (total volume of reaction is 2.5 μL). The translation reactions were performed at 37° C. for 1 h on an aluminum block.
For a full MroBCD substrate scope investigation, a total translation volume for each variant of 7.5 μL was performed. 1.5 μL of 90 mM iodoacetamide (IAA) was added to quench dithiothreitol (DTT) in the translation reaction mixture, a thiol-based nucleophile that can react with electrophilic dehydroalanines generated from MroBC-catalyzed dehydration assays. The translation product was split into two parts with these corresponding volumes: 3 μL and 6 μL. In the 6 μL part. 10.2 μL of the enzyme mix containing enzymes and cofactors was added along with 1.8 μL 90 mM ATP (pH 7.5), which was used to initiate the reaction. […]
After incubation, the enzyme reaction (18 μL) was split into two equal parts. […] The crystallized spots were then analyzed using MALDI-TOF-MS (Bruker Ultraflex). […]

[4] = tested on: MroD; assay: MroD [4+2] macrocyclization of didehydrated MroA2 variants, MALDI-TOF-MS; type: biochemical, Micromonospora rosaria; set-up: key: +++ indicates enzyme activity roughly equal to wild-type MroA2; ++ indicates modestly reduced enzyme activity; + indicates severely reduced enzyme activity; − indicates no detectable enzyme activity (no macrocycles observed); settings: MroA2 multi-site variants; qualitatively estimated from leader peptide vs remaining didehydrated intermediate
Procedure: (§4) After incubation, the enzyme reaction (18 μL) was split into two equal parts. One part was treated with MBP-MroD such that the final concentration of MBP-MroD is 3 μM, and the other part was added the same volume but with buffer lacking MBP-MroD (50 mM HEPES, 300 mM NaCl, 2.5% glycerol, 0.5 mM TCEP). The reaction further proceeded for 1.5 h at room temperature. All reaction mixture was then desalted with solid-phase extraction using Ziptip with 0.6 μL C18 resin (EMD Millipore) and crystallized on an MTP384 steel target plate using either saturated sinapic acid or 50 mg/mL Super DHB [dissolved in 60% acetonitrile and 0.1% trifluoroacetic acid (TFA)] as the matrix. The crystallized spots were then analyzed using MALDI-TOF-MS (Bruker Ultraflex). The external standard for MALDI-TOF-MS analysis is ProteoMass Peptide and Protein MALDI-MS Calibration Kit (Sigma).

[5] = tested on: MroB/C; assay: MroB/C dehydration (Dha formation) of MroA precursor peptide variants, MALDI-TOF-MS / LC-MS/MS; type: biochemical, Micromonospora rosaria; settings: MroA2 multi-site variants, in vitro translated, MALDI-TOF-MS
Procedure: as §3
For a full MroBCD substrate scope investigation, a total translation volume for each variant of 7.5 μL was performed. 1.5 μL of 90 mM iodoacetamide (IAA) was added to quench dithiothreitol (DTT) in the translation reaction mixture, a thiol-based nucleophile that can react with electrophilic dehydroalanines generated from MroBC-catalyzed dehydration assays. The translation product was split into two parts with these corresponding volumes: 3 μL and 6 μL. In the 6 μL part. 10.2 μL of the enzyme mix containing enzymes and cofactors was added along with 1.8 μL 90 mM ATP (pH 7.5), which was used to initiate the reaction. The enzyme mix was made by adding these components in the following order: HEPES pH 7.5, MgCl2, glutamate, T. bispora tRNA^Glu (CUC), thermostable inorganic pyrophosphatase (TIPP), TEV (L56V/S135G/S219V) (w/w ratio with a total amount of MBP-tagged protein=1:10), MBP-MroB, MBP-MroC, and T. bispora GluRS. The enzyme mix was incubated 25 min at room temperature before adding to the translation product to facilitate in situ TEV-catalyzed cleavage of MBP from MBP-MroB and MBP-MroC. The enzymatic reaction proceeded for 1 h at room temperature. Overall, the concentration of components in the 18 μL reaction mix is as follows: 50 mM HEPES pH 7.5, 5 mM MgCl2. L-glutamate 1 mM, 3 μM T. bispora tRNA^Glu, 1 μM T. bispora GluRS, 2 μM MBP-MroB, 2 μM MBP-MroC, […], 0.027 U/μL TIPP, and 5 mM IAA. In addition, the 3 μL part was incubated with the same buffer lacking enzymes and tRNA as a translation control.
The reactions were performed similarly as described above, with 10 μM substrate concentration and without IAA. The total volume of each reaction is 100 μL.
Enzymatic assays were desalted using solid-phase extraction prior to LC-ESI-MS/MS analysis. Specifically, except for the thiazol(in)es-containing pyritide (which utilize 8 mg Pierce C18 Spin Column), the samples were applied to Toptip C18 (10-200 μL, Glygen Corp) wetted with 50 μL of 80% acetonitrile (0.1% formic acid) and equilibrate with 150 μL of 0.1% formic acid following the manufacturer instructions. The C18 columns (tips) are then washed with 150 μL of 0.1% formic acid and eluted using 100 μL 80% acetonitrile (0.1% formic acid). The samples were then dried utilizing lyophilization and redissolved in 25% acetonitrile (80 μL for enzymatic assays of in vitro-translated substrates and 200 μL for enzymatic assays of purified substrates). Then 20 μL of each sample was injected into an Agilent AdvanceBio Peptide Plus column (2.1×150 mm, 2.7 μm) equipped with an Agilent 6545B Q-TOF interfaced with an Agilent 1290 Infinity II LC system. Mobile phase solvents were composed of H2O, 0.1% formic acid (Solvent A), and acetonitrile 0.1% formic acid (Solvent B). The column compartment was maintained at 35° C. during all experiments. The column was equilibrated with 5 column volumes of starting mobile phase (95% A and 5% B) between injections. The gradient of all LC runs was as follows: 0-2 min: 95% A 5% B, 2-3 min: 70% A 30% B, 3-18 min: 20% A 80% B, 18-20 min: 5% A 95% B. The samples were run to waste for the first 3 min before applying to the mass spectrometer. Mass range was set from 100 to 1700 m/z (except for 412MroA1 W7G: 100-3000 m/z). MS parameters were as follows: gas, 320° C. at 8 L/min: nebulizer, 35 psig: nozzle voltage, 1000 V: sheath gas, 350° C. at 11 L/min: capillary, 3500 V: fragmentor, 125 V: skimmer, 65 V: MS scan rate (10) spectra/s): MS-MS scan rate (5 spectra/s); and isolation width (MS/MS), 1.3 m z. […]

[6] = tested on: MroD; assay: Competition fluorescence polarization with fluorescein-Δ12MroA1, MroD; type: binding, Micromonospora rosaria; settings: competition FP, 80 nM enzyme, 5 nM labeled Δ12MroA1
Procedure: (§5) The initial sample contained 80 nM enzyme, 5 nM labeled Δ12MroA1 peptide, and competitor peptide (concentration is from 20 μM to 100 μM, depending on the experiment). In a black 384-well plate (Corning 3575), 30 μL of initial sample was added to the first well, followed by 13 2-fold dilutions into subsequent wells containing 80 nM MBP-MroB and 5 nM labeled Δ12MroA1. The plate was covered from light and incubated at room temperature for 10 min, and then fluorescence polarization was measured (Biotek Synergy H4 hybrid reader) using the following filter (Ex: Em—485 nm/20 nm: 518 nm/20 nm). The obtained data was converted to anisotropy value and plotted against peptide concentration, and fitted to dose-response function:
(§6) Where: y=anisotropy value, A1=minimum anisotropy, A2=maximum anisotropy, p=Hill's coefficient, x=competitor concentration. The obtained IC50 was used to calculate inhibitor constant Krusing the following equation: 12
(§7) In cases where competitor concentration was not high enough to achieve a plateau, the competition curve was fitted with minimum anisotropy fixed to be the same value as the anisotropy value of the free probe solution. This calculation assumed that the labeled peptide was completely displaced from the enzyme binding pocket at a very high concentration of the competitor. […] The specific minimum anisotropy used in this experiment for both MroB and MroD was 65.

[7] = tested on: MroB; assay: Competition fluorescence polarization with fluorescein-Δ12MroA1, MroB; type: binding, Micromonospora rosaria; settings: competition FP, 80 nM enzyme, 5 nM labeled Δ12MroA1
Procedure: as §5, §6, §7

[8] = target: MBP-MroD (Micromonospora rosaria MroD with maltose-binding protein fused to the N-terminus) (Micromonospora rosaria) [MBP: P0AEX9]; assay: fluorescence polarization, MBP-MroD titrated against labeled peptide
[9] = target: MBP-MroB (Micromonospora rosaria MroB with maltose-binding protein fused to the N-terminus) (Micromonospora rosaria) [MBP: P0AEX9]; assay: fluorescence polarization, MBP-MroB titrated against labeled peptide
[10] = tested on: MroD; assay: MroD [4+2] macrocyclization of didehydrated MroA2 variants, MALDI-TOF-MS; type: biochemical, Micromonospora rosaria; settings: MroA2 multi-site variants; qualitatively estimated from leader peptide vs remaining didehydrated intermediate
Procedure: as §4

## CC[C@H](C)[C@H](NC(=O)[C@@H](NC(=O)[C@H](Cc1c[nH]c2ccccc12)NC(=O)[C@H](CO)NC(=O)CNC(=O)[C@H](CC(C)C)NC(=O)[C@H](Cc1c[nH]c2ccccc12)NC(=O)CNC(=O)[C@H](CO)NC(=O)[C@H](C)NC(=O)CNC(=O)[C@@H](NC(=O)[C@H](CCC(=O)O)NC(=O)[C@@H](NC(=O)[C@H](CC(N)=O)NC(=O)CNC(=O)[C@H](CC(C)C)NC(=O)CNC(=O)CNC(=O)[C@@H](NC(=O)[C@H](CO)NC(=O)[C@H](CC(C)C)NC(=O)[C@H](C)NC(=O)[C@H](C)NC(=O)[C@H](CC(C)C)NC(=O)[C@H](CCC(=O)O)NC(=O)[C@H](CCC(=O)O)NC(=O)[C@H](CC(=O)O)NC(=O)[C@@H](NC(=O)[C@H](C)NC(=O)[C@H](CC(C)C)NC(=O)[C@H](CC(=O)O)NC(=O)[C@H](CC(C)C)NC(=O)[C@H](CC(=O)O)NC(=O)[C@@H](NC(=O)[C@@H](NC(=O)[C@H](CC(=O)O)NC(=O)[C@H](CC(C)C)NC(=O)[C@H](CC(=O)O)NC(=O)[C@H](CO)NC(=O)c1ccc2c(c1)C(=O)OC21c2ccc(O)cc2Oc2cc(O)ccc21)[C@@H](C)CC)C(C)C)C(C)C)C(C)C)[C@@H](C)O)C(C)C)C(C)C)C(=O)O [fluorescein-Δ12MroA1] (5FAM-SDLDIVDLDLAVDEELAALSVGGLGNTEVGASGWLGSWVI-OH)
[1]
  Kd: ~60 nM
[2]
  Kd: ~12 nM

## SGFFGRSWLI [MroA2, wild-type precursor peptide of M. rosaria]
[3]
  overall pyritide biosynthesis (dehydration and macrocyclization) by MroBCD: yielding the expected pyritides
[4]
  Relative MroD conversion: +++
[5]
  Dha formation: 2 Dha

## H-SDLDIVDLDLAVDEELAALSVGGLGNTEVGASGWLGSWVI-OH [Δ12MroA1]
[3]
  overall pyritide biosynthesis (dehydration and macrocyclization) by MroBCD: full dehydration and macrocyclization
[6]
  IC50: 900 ± 20 nM
[7]
  IC50: 680 ± 40 nM

## fluorescein-Δ12MroA1 (Δ12MroA1 N-terminally labeled with fluorescein) (peptide)
[8]
  Kd: 12 nM
[9]
  Kd: 60 nM

## SGIAKAGQSWLI [Number 28]
[10]
  Relative MroD conversion: 1
[5]
  Dha formation: 2 Dha
